Experimental data from patent US20240409963A1, “Use of Inhibitors to Increase Efficiency of Crispr/CAS Insertions” (AstraZeneca AB, priority 2021, published 2024).

Legend:
HEK293T cells [1] = test: Different DNAPK inhibitors on precise gene editing outcomes, Example 8; conditions: for HDR to indel ratio / Precise KI fold increase: gINS + ssDNA; for Precise KI fold increase: vs DMSO; for MMEJ indels Mean / NHEJ indels Mean / Total editing Mean: sgRNA CD34 (gINS) + ssDNA, 70 hours post-transfection;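 as to all read-outs here: cells transfected with plasmids for SpCas9-EGFP, editing outcomes quantified from genomic DNA by deep targeted amplicon sequencing with bioinformatic analysis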
Description: Cells allowed to attach for 12 hours before transfection. Cells were transfected with DNA plasmids encoding for SpCas9-EGFP and a sgRNAs targeting CD34 (gINS) in the presence of single-stranded oligonucleotide donor (ssDNA). 70 hours post-transfection cell confluence and EGFP-based transfection efficiencies were determined with the Incucyte S3. Genomic DNA was extracted and editing outcome was analysed through deep-targeted amplicon sequencing using bioinformatic analysis.

HEK293T cells [2] = test: PolQ inhibitor ART558 titration on precise gene editing outcomes, Example 10; type: cell-based; conditions: HEK293T, with 1 μM AZD7648
Description: HEK293T cells were seeded into 96-well plates and allowed to attach for 20 hours.

Structure (SMILES)	HDR to indel ratio (HEK293T cells [1]; DNAPK inhibitor 0.3125 μM)	Precise KI fold increase (HEK293T cells [1]; DNAPK inhibitor 0.3125 μM)	HDR to indel ratio (HEK293T cells [1]; DNAPK inhibitor 0.625 μM)	Precise KI fold increase (HEK293T cells [1]; DNAPK inhibitor 0.625 μM)	HDR to indel ratio (HEK293T cells [1]; DNAPK inhibitor 1.25 μM)	Precise KI fold increase (HEK293T cells [1]; DNAPK inhibitor 1.25 μM)	HDR to indel ratio (HEK293T cells [1]; DNAPK inhibitor 5 μM)	Precise KI fold increase (HEK293T cells [1]; DNAPK inhibitor 5 μM)	HDR to indel ratio (HEK293T cells [1]; DNAPK inhibitor 10 μM)	Precise KI fold increase (HEK293T cells [1]; DNAPK inhibitor 10 μM)	MMEJ indels Mean (HEK293T cells [1]; DNAPK inhibitor 0.3125 μM)	NHEJ indels Mean (HEK293T cells [1]; DNAPK inhibitor 0.3125 μM)	Total editing Mean (HEK293T cells [1]; DNAPK inhibitor 0.3125 μM)	MMEJ indels Mean (HEK293T cells [1]; DNAPK inhibitor 0.625 μM)	NHEJ indels Mean (HEK293T cells [1]; DNAPK inhibitor 0.625 μM)	Total editing Mean (HEK293T cells [1]; DNAPK inhibitor 0.625 μM)	MMEJ indels Mean (HEK293T cells [1]; DNAPK inhibitor 1.25 μM)	NHEJ indels Mean (HEK293T cells [1]; DNAPK inhibitor 1.25 μM)	Total editing Mean (HEK293T cells [1]; DNAPK inhibitor 1.25 μM)	MMEJ indels Mean (HEK293T cells [1]; DNAPK inhibitor 5 μM)	further results
[2H]c1nc(C)nc([2H])c1-c1cc(NC[C@@H](C)c2cccc3c(C(=O)NC)ccnc23)ncn1	0.3	1.5 fold	0.5	2.2 fold	0.7	2.4 fold	1.1	2.8 fold	1.1	2.7 fold	15.8	25.0	66.8	17.8	16.7	66.8	18.1	9.0	60.4	17.1	NHEJ indels Mean (HEK293T cells [1]; DNAPK inhibitor 5 μM): 2.4; Total editing Mean (HEK293T cells [1]; DNAPK inhibitor 5 μM): 55.0; MMEJ indels Mean (HEK293T cells [1]; DNAPK inhibitor 10 μM): 17.3; NHEJ indels Mean (HEK293T cells [1]; DNAPK inhibitor 10 μM): 2.0; Total editing Mean (HEK293T cells [1]; DNAPK inhibitor 10 μM): 53.4
Cc1nccnc1C(O)c1ccc(F)c(-c2ncnc3cc(N4CCOCC4)ccc23)c1 (centres unmarked) [TLR1, (4-fluoro-3-(7-morpholinoquinazolin-4-yl)phenyl) (3-methylpyrazin-2-yl) methanol]	0.4	1.9 fold	0.7	2.4 fold	0.9	2.6 fold	1.4	2.5 fold	1.5	2.0 fold	15.4	21.6	66.4	17.3	12.3	63.2	16.9	6.9	58.1	11.9	NHEJ indels Mean (HEK293T cells [1]; DNAPK inhibitor 5 μM): 1.7; Total editing Mean (HEK293T cells [1]; DNAPK inhibitor 5 μM): 44.5; MMEJ indels Mean (HEK293T cells [1]; DNAPK inhibitor 10 μM): 9.2; NHEJ indels Mean (HEK293T cells [1]; DNAPK inhibitor 10 μM): 1.3; Total editing Mean (HEK293T cells [1]; DNAPK inhibitor 10 μM): 34.1
Cc1cc2ncnn2cc1Nc1ncc2c(n1)N(C1CCOCC1)CC(=O)N2C [TLR2, 5-methyl-2-((7-methyl-[1,2,4]triazolo[1,5-a]pyridin-6-yl)amino)-8-(tetrahydro-2H-pyran-4-yl)-7,8 dihydropteridin-6 (5H)-one]	0.6	2.3 fold	0.9	2.5 fold	1.0	2.3 fold	1.1	2.6 fold	1.1	2.1 fold	16.7	13.5	62.8	17.1	6.1	56.8	16.0	3.2	49.7	16.2	NHEJ indels Mean (HEK293T cells [1]; DNAPK inhibitor 5 μM): 2.1; Total editing Mean (HEK293T cells [1]; DNAPK inhibitor 5 μM): 50.9; MMEJ indels Mean (HEK293T cells [1]; DNAPK inhibitor 10 μM): 13.6; NHEJ indels Mean (HEK293T cells [1]; DNAPK inhibitor 10 μM): 1.8; Total editing Mean (HEK293T cells [1]; DNAPK inhibitor 10 μM): 42.4
Cc1cccc(N(C)C(=O)[C@@H]2[C@H](O)CCN2c2nc(C)cc(C(F)(F)F)c2C#N)c1 [ART558]	–	–	–	–	–	–	–	–	–	–	–	–	–	–	–	–	–	–	–	–	precise knock-in frequencies of the single-stranded oligonucleotide donor (HEK293T cells [2]; concentration-dependent): increases; unprecise DNA repair events (HEK293T cells [2]; with increasing inhibitor concentration): decreases
